The results in this text go back to BindingDB's records for doi:10.1021/jm00089a010 (Abbott Laboratories, 1992).

One may read the pIC50 as the IC50 on a negative log10 scale, so that one unit is a factor of ten. Lower therefore signals a high IC50.

pIC50: −log10 of the molar value. Where a SMILES comes first, the peptide text is derived from it. The star is where a group is joined. Quinoline3carbonyl = O=C(c1cnc2ccccc2c1)*; X14 = O=C(c1cc2cc(O)ccc2[nH]1)*; X2 = O=C(c1cc2cc(Cl)ccc2[nH]1)*; X8 = COc1ccc2[nH]c(C(=O)*)cc2c1; X12 = O=C(c1cnc2cccc(O)c2c1)*; X21 = O=C(/C=C\c1ccc(Br)cc1)*; X16 = O=C(/C=C\c1ccccc1O)*; Boc = CC(C)(C)OC(=O)*

In the assay the target is Gastrin/cholecystokinin type B receptor (Cavia porcellus). Briefly: Inhibition of specific binding of [125I]BH-CCK-8 in guinea pig cortex.
`CC(C)(C)OC(=O)N[C@@H](Cc1c[nH]c2ccccc12)C(=O)N[C@@H](CCCCNC(=O)c1cc2cc(O)ccc2[nH]1)C(=O)N[C@@H](CC(=O)O)C(=O)N[C@@H](Cc1ccccc1)C(N)=O` (Boc-WK(X14)DF-NH2): the pIC50 was 6.08. Molecule `CC(C)(C)OC(=O)N[C@@H](Cc1c[nH]c2ccccc12)C(=O)N[C@@H](CCCCNC(=O)/C=C\c1ccccc1O)C(=O)N[C@@H](CC(=O)O)C(=O)N[C@@H](Cc1ccccc1)C(N)=O` [3-{2-[2-tert-Butoxycarbonylamino-3-(1H-indol-3-yl)-propionylamino]-6-[3-(2-hydroxy-phenyl)-acryloylamino]-hexanoylamino}-N-(1-carbamoyl-2-phenyl-ethyl)-succinamic acid; hydrate] (Boc-WK(X16)DF-NH2) gave a pIC50 of 6.68. Regarding `COc1ccc2[nH]c(C(=O)NCCCC[C@H](NC(=O)[C@H](Cc3c[nH]c4ccccc34)NC(=O)OC(C)(C)C)C(=O)N[C@@H](CC(=O)O)C(=O)N[C@@H](Cc3ccccc3)C(N)=O)cc2c1` (Boc-WK(X8)DF-NH2), the pIC50 was 5.52. The molecule `CC(C)(C)OC(=O)N[C@@H](Cc1c[nH]c2ccccc12)C(=O)N[C@@H](CCCCNC(=O)c1cnc2cccc(O)c2c1)C(=O)N[C@@H](CC(=O)O)C(=O)N[C@@H](Cc1ccccc1)C(N)=O` (Boc-WK(X12)DF-NH2) had a pIC50 of 6.17. The molecule `CC(C)(C)OC(=O)N[C@@H](Cc1c[nH]c2ccccc12)C(=O)N[C@@H](CCCCNC(=O)c1cnc2ccccc2c1)C(=O)N[C@@H](CC(=O)O)C(=O)N[C@@H](Cc1ccccc1)C(N)=O` (Boc-WK(Quinoline3carbonyl)DF-NH2) showed a pIC50 of 6.70.

In turn, `CC(C)(C)OC(=O)N[C@@H](Cc1c[nH]c2ccccc12)C(=O)N[C@@H](CCCCNC(=O)c1cc2cc(Cl)ccc2[nH]1)C(=O)N[C@@H](CC(=O)O)C(=O)N[C@@H](Cc1ccccc1)C(N)=O` (Boc-WK(X2)DF-NH2) showed a pIC50 of 5.28. Take `CC(C)(C)OC(=O)N[C@@H](Cc1c[nH]c2ccccc12)C(=O)N[C@@H](CCCCNC(=O)/C=C\c1ccc(Br)cc1)C(=O)N[C@@H](CC(=O)O)C(=O)N[C@@H](Cc1ccccc1)C(N)=O` [3-{6-[3-(4-Bromo-phenyl)-acryloylamino]-2-[2-tert-butoxycarbonylamino-3-(1H-indol-3-yl)-propionylamino]-hexanoylamino}-N-(1-carbamoyl-2-phenyl-ethyl)-succinamic acid; hydrate.NH4OH] (Boc-WK(X21)DF-NH2): the pIC50 was 5.29.
